Experimental data as given in EP3381897A1, “DERIVATIVES OF THE DISODIUM 2,2'-{CARBONYLBIS[IMINO-3,1-PHENYLENECARBONYLIMINO(1-METHYL-1H-PYRROLE-4,2-DIYL)CARBONYLIMINO]}DINAPHTHALENE-1,5-DISULFONATE SALT AND RELATED COMPOUNDS AS HEPARANASE INHIBITORS FOR THE TREATMENT OF CANCER” (Leadiant Biosciences SA, priority 2017, dated 2018).
Where a name gives a salt, the structure may show the parent alone.

Columns and labels:
[1] = tested on: HT1080 (human fibrosarcoma); assay: Cell adhesion assay on matrigel coated wells; assay type: cell-based; conditions: percent of adhesion with respect to the control (100%)
Procedure: Cell surface, non-integrin molecules such as heparan sulfate proteoglycans (HSPGs) may be involved in the regulation of early adhesive stages of cell-ECM interactions. A cell adhesion assay has been employed to determine if the newly designed heparanase inhibitors were able to interfere with adhesion properties of cancer cells. […] Then cells were collected, washed in complete medium, and added to matrigel coated wells in triplicate, at previously identified optimal seeding density, and incubated at 37 °C in complete medium for times ranging from 15 minutes to 4h, according to the cell line. […] Optical density was measured at 560 nm by Victor 3 (Perkin-Elmer) plate analyzer. Each experiment was repeated three times. Table 4. […] In Invasion assay, data were expressed as the percent invasion (range) with respect to cell migration through uncoated insert membrane.

[2] = tested on: FGF-1; assay: Real-Time quantitative PCR of mRNA gene expression in HT1080 cells; assay type: cell-based, human; conditions: 2.5 uM, 24 h
[3] = tested on: FGF-2; assay: as above; assay type: cell-based, human; conditions: 2.5 uM, 24 h
[4] = tested on: VEGF; assay: as above; assay type: cell-based, human; conditions: 2.5 uM, 24 h
[5] = tested on: MMP-9; assay: as above; assay type: cell-based, human; conditions: 2.5 uM, 24 h
[6] = tested on: HPSE-1; conditions: 2.5µM; HT1080 cells
Procedure: To evaluate the effect of heparanase inhibitors on the tumor transcription of genes encoding for proangiogenic factors, such as FGF1/2, VEGF, MMP-9, HSPE-1, the relative mRNA levels were analyzed by quantitative Real-Time Quantitative PCR. To perform the assay, HT1080 (human fibrosarcoma) cells were cultured in complete medium containing 10%FCS (fetal calf serum). Cells were plated in 24-well plates and treated at fixed concentration (i.e., highest non-toxic concentration) of test compounds. After 24 h, cells were detached, collected and total RNA extracted by RNeasy Mini Kit (QIAGEN). Following reverse transcription step, FGF1/2, VEGF, MMP-9, HSPE-1 mRNA levels, were quantified by qPCR using the advanced Universal SYBR Green Supermix (Bio Rad) and ABI PRISM 7900HT Thermal Cycler System (Perkin Elmer), according to the manufacturer's instructions. […] Relative levels of RNA were calculated using the ddCt method. Standard curve and sample data were run in duplicate.

[7] = tested on: HT1080 (human fibrosarcoma); assay: SRB Cell Cytotoxicity Assay; assay type: cell-based
Procedure: (§1) SRB Cell Cytotoxicity Assay is an assay based upon the quantitative staining of cellular proteins by sulforhodamine B (SRB). This assay can be used for high-throughput drug screening ([…], Nature Protocol. 2006, 1, 112). Sulforhodamine B is an anionic aminoxanthene dye that forms an electrostatic complex with the basic amino acid residues of proteins under moderately acid conditions, which provides a sensitive linear response. […] Inhibition of cell proliferation was then measured by the classical colorimetric SRB Cell Cytotoxicity assay. Absorbance was measured by spectrophotometer at a wavelength of 510 nm and cell proliferation was determined as percent with respect to control cells (cells treated with the vehicle alone). EC50 values were then determined by GraphPad Prism.

[8] = tested on: U2OS (human osteosarcoma); assay: SRB Cell Cytotoxicity Assay; assay type: cell-based
Procedure: as §1

[9] = tested on: U87MG (human glioblastoma astrocytoma); assay: SRB Cell Cytotoxicity Assay; assay type: cell-based
Procedure: as §1

[10] = tested on: HT1080 (human fibrosarcoma); assay: Matrigel cell invasion assay; assay type: cell-based; conditions: HT-1080
Procedure: Heparanase inhibitors were then evaluated for their activity on the invasive potential of HT1080 (human fibrosarcoma) human cell lines, using the Matrigel cell invasion assay which allows to assess the cell invasion ability of malignant and normal cells. Invasion assay was performed using BioCoat cell culture inserts (BioCoat 8.0µm PET Membrane 24 Well Permeable Supports, Corning). Filters were coated with 100 µl of 300 µg/ml Matrigel dissolved in coating buffer (0.01 M Tris pH 8.0, 0.7% NaCl) (Becton-Dickinson Sciences). DMEM (Dulbecco's Modified Eagle's Medium) containing 5% FBS was added to the lower chambers. Cells were pre-treated with heparanase inhibitors for 24 h, detached and added to the upper chambers in media containing the inhibitors. Cells were allowed to invade for 24 h at 37°C in a CO2 incubator and then unmigrated cells were removed from the upper chamber with a cotton swab. […] Test compounds were analyzed at fixed concentration for several fields, in duplicates. Activity of test compounds was compared to the reference compound. Activity of most interesting compound was confirmed in a second cell invasion assay. Data were expressed as the percent invasion with respect to cell migration through uncoated insert membrane. (Table 4) Table 4. […] In Invasion assay, data were expressed as the percent invasion (range) with respect to cell migration through uncoated insert membrane.

SMILES	Adhesion Assay (%) HT1080; 2.5 µM ([1]; 2.5 µM)	Gene Expression (% mRNA vs. control) FGF-1 [2]	Gene Expression (% mRNA vs. control) FGF-2 [3]	Gene Expression (% mRNA vs. control) VEGF [4]	Gene Expression (% mRNA vs. control) MMP-9 [5]	silencing of heparanase gene (in words) [6]	further results
Cn1cc(NC(=O)c2cccc(NC(=O)Nc3cccc(C(=O)Nc4cc(C(=O)Nc5ccc6c(S(=O)(=O)O)cccc6c5S(=O)(=O)O)n(C)c4)c3)c2)cc1C(=O)Nc1ccc2c(S(=O)(=O)[O-])cccc2c1S(=O)(=O)[O-].[Na+].[Na+] [Example 1, Disodium 2,2'-{carbonylbis[imino-3,1-phenylenecarbonylimino(1-methyl-1H-pyrrole-4,2-diyl)carbonylimino]}dinaphthalene-1,5-disulfonate salt]	∼ 86%	–	–	–	–	–	–
O=C(Nc1cccc(C(=O)Nc2cc(C(=O)Nc3ccc4c(S(=O)(=O)[O-])cccc4c3S(=O)(=O)[O-])n(C3CC3)c2)c1)Nc1cccc(C(=O)Nc2cc(C(=O)Nc3ccc4c(S(=O)(=O)O)cccc4c3S(=O)(=O)O)n(C3CC3)c2)c1.[Na+].[Na+] [Example 2, Disodium 2,2'-{carbonylbis[imino-3,1-phenylenecarbonylimino(1-cyclopropyl-1H-pyrrole-4,2-diyl)carbonylimino]}dinaphthalene-1,5-disulfonate salt]	∼ 88%	–	–	–	–	–	–
Cn1cc(NC(=O)Nc2cc(C(=O)Nc3cccc(C(=O)Nc4ccc5c(S(=O)(=O)O)cccc5c4S(=O)(=O)O)c3)n(C)c2)cc1C(=O)Nc1cccc(C(=O)Nc2ccc3c(S(=O)(=O)O)cccc3c2S(=O)(=O)O)c1 [Example 6, Disodium 2,2'-{carbonylbis[imino(1-methyl-1H-pyrrole-4,2-diyl)carbonylimino-3,1-phenylenecarbonylimino]}dinaphthalene-1,5-disulfonate salt]	∼ 86%	∼ 87%	∼ 98%	∼ 85%	∼ 80%	almost complete silencing of heparanase gene	–
Cn1cc(NC(=O)Nc2cc(C(=O)Nc3cc(C(=O)Nc4ccc5c(S(=O)(=O)O)cccc5c4S(=O)(=O)O)n(C)c3)n(C)c2)cc1C(=O)Nc1cc(C(=O)Nc2ccc3c(S(=O)(=O)O)cccc3c2S(=O)(=O)O)n(C)c1 [FCE27266, disodium 2,2'-{carbonylbis[imino(1-methyl-1H-pyrrole-4,2-diyl)carbonylimino(1-methyl-1H-pyrrole-4,2-diyl)carbonylimino]}dinaphthalene-1,5-disulfonate salt]	∼ 93%	∼ 44%	∼ 86%	∼ 100%	∼ 100%	almost complete silencing of heparanase gene	–
Cc1ccc(C(=O)Nc2ccc(S(=O)(=O)O)c3cc(S(=O)(=O)O)cc(S(=O)(=O)O)c23)cc1NC(=O)c1cccc(NC(=O)Nc2cccc(C(=O)Nc3cc(C(=O)Nc4ccc(S(=O)(=O)O)c5cc(S(=O)(=O)O)cc(S(=O)(=O)O)c45)ccc3C)c2)c1 [Suramin, suramin]	–	–	–	–	–	–	interference with the cell growth (in words) ([7]; HT1080, tested up to 2.5 µM): do not interfere with the cell growth; IC50 ([7]; Homo sapiens, HT-1080, 72h treatment, read-out: Concentration of test compounds at which the cell growth is inhibited by 50 % HT1080): > 2500 nM; IC50 ([8]; Homo sapiens, 72h treatment, read-out: Concentration of test compounds at which the cell growth is inhibited by 50 % U2OS): > 2500 nM; interference with the cell growth (in words) ([8]; tested up to 2.5 µM): do not interfere with the cell growth; IC50 ([9]; Homo sapiens, U-87 MG, 72h treatment, read-out: Concentration of test compounds at which the cell growth is inhibited by 50 % U87MG): > 2500 nM; interference with the cell growth (in words) ([9]; U87MG, tested up to 2.5 µM): do not interfere with the cell growth; inhibition at 2.5 µM [10]: < 50%; Adhesion Assay (%) HT1080; 2.5 µM ([1]; Reference compound (Suramin) at 10 µM according to b319): ∼ 100%
